The values that follow come from patent US8022206B2 (OSI Pharmaceuticals, LLC, priority 2008, dated 2011).

The target in test [1] is MET (human) (Homo sapiens, UniProt P08581). As to the kind of experiment: MET (human) AlphaScreen kinase assay, Km of ATP. As to conditions: AlphaScreen, Km of ATP; read-out: Met biochemical IC50. Format: biochemical. The protocol: (§1) Someone skilled in the art will appreciate that a variety of assay formats may be used to determine the activity of the compounds of this invention. For example, AlphaScreen (Amplified Luminescent Proximity Homogeneous Assay) technology was used with the kinases described below. Assay ATP concentrations for individual kinases are included in the text.
Chain of MET (human) (P08581 25-1390): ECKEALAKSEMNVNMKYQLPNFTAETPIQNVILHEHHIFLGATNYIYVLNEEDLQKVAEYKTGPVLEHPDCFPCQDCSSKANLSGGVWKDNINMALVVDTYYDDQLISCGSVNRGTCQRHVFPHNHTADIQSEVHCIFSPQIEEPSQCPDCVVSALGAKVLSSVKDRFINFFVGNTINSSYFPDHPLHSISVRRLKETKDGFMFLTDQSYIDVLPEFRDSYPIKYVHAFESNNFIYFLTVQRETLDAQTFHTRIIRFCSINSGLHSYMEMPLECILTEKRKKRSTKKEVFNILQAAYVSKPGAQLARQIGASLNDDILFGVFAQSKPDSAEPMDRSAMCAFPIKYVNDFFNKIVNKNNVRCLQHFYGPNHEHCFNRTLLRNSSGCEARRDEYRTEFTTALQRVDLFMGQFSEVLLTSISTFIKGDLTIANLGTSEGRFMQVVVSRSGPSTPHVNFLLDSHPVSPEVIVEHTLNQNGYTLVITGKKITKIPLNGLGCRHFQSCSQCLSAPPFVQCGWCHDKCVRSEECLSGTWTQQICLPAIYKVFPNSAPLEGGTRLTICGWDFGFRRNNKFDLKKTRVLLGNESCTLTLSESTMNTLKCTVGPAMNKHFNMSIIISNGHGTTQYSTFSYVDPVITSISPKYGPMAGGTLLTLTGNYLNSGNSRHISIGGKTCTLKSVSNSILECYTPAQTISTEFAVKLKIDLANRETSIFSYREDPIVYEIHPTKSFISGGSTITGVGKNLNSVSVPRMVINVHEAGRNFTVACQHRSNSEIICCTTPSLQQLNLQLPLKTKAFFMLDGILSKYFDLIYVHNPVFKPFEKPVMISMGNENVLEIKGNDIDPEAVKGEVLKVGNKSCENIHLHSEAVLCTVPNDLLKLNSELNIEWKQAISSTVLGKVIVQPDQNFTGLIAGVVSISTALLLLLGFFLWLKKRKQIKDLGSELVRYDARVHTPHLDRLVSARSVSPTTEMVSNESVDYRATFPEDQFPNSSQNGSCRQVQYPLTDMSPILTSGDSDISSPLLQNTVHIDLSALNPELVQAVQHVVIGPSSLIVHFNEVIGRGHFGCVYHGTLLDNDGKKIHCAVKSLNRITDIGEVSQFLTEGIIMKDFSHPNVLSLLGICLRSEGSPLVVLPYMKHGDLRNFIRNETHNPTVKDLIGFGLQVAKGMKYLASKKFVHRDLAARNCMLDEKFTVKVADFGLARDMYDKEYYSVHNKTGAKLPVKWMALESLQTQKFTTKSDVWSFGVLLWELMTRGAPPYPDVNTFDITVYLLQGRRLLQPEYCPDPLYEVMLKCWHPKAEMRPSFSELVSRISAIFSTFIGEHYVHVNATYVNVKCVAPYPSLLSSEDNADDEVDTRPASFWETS
Desired compound is added in a final concentration of 1% DMSO with control being vehicle of DMSO alone. MET is diluted to the optimized concentration (optimized on a lot-by-lot basis) in an enzyme diluent buffer (50 mM Tris pH=7.4, 1% glycerol, 0.03% Brij35, 0.24 mM EGTA, 1 mM DTT, and 0.003% BSA). Enzyme is added to initiate the reaction and incubated for 60 min at RT. In subdued light, appropriate amount of PT66 donor and acceptor beads (diluted 1:260 from manufacturer's provision in a 25 mM Tris HCl (pH=7.5), 400 mM NaCl, 100 mM EDTA, 0.3% BSA buffer) are added to the wells. The plates, incubated for 1 h, are read on an AlphaQuest plate reader
(In general: In Alpha technology, singlet oxygen from a donor bead excites a nearby acceptor bead.)

The target in test [2] is RON (human) (Homo sapiens, UniProt Q04912). The test is described as follows: RON (human) AlphaScreen kinase assay, Km of ATP. The format is biochemical. Particulars: AlphaScreen, Km of ATP; read-out: RON biochemical IC50. The protocol: as §1
Chain of RON (human) (Q04912 25-1400): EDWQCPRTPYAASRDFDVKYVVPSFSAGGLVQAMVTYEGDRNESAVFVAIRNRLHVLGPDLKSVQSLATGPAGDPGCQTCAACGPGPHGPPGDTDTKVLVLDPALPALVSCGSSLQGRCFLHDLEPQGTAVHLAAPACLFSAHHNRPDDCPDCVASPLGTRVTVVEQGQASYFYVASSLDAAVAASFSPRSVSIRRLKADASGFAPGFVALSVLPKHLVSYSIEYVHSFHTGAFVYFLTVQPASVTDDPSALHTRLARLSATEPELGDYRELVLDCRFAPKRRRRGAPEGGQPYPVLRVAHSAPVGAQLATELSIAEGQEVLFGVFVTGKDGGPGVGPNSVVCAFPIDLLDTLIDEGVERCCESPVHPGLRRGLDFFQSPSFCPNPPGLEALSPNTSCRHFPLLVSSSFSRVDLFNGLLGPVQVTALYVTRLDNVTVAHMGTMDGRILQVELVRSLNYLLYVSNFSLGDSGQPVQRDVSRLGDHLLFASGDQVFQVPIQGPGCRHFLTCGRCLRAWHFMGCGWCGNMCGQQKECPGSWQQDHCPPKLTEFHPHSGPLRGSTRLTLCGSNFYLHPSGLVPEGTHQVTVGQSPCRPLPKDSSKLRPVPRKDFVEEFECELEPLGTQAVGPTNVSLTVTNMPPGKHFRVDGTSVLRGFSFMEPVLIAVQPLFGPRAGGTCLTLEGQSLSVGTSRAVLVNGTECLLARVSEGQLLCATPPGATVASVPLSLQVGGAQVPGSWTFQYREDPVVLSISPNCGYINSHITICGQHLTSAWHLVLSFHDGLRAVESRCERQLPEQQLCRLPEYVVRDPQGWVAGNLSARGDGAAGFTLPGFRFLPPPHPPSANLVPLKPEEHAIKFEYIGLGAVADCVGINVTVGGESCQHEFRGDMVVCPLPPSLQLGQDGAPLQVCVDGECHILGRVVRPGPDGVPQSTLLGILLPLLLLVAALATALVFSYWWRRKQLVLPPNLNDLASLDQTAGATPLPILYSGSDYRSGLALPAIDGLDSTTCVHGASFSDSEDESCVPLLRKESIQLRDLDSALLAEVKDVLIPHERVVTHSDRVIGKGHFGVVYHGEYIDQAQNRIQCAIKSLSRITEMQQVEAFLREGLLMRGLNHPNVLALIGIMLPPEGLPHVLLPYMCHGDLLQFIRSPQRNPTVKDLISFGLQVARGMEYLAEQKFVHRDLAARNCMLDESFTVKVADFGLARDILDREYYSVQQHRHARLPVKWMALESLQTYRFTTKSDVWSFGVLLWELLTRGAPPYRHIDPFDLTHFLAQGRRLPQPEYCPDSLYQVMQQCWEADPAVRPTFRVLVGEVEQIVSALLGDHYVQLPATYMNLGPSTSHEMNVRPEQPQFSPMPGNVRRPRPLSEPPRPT
Desired compound is added in a final concentration of 1% DMSO with control being vehicle of DMSO alone. […] Enzyme is added to initiate the reaction and incubated for 30 min at RT. In subdued light, appropriate amount of PT66 donor and acceptor beads (diluted 1:260 from manufacturer's provision in a 25 mM Tris HCl (pH=7.5), 200 mM NaCl, 100 mM EDTA, 0.3% BSA buffer) are added to the wells. The plates, incubated for 1 h, are read on an AlphaQuest plate reader.

For the compound `C[C@@H](Oc1c(N)ncc2c(C3=CCN(C(=O)[C@@H]4CCCNC4)CC3)coc12)c1c(Cl)ccc(F)c1Cl` [Example 241, (4-{6-Amino-7-[(R)-1-(2,6-dichloro-3-fluorophenyl)ethoxy]-furo[3,2-c]pyridin-3-yl}-3,6-dihydro-2H-pyridin-1-yl)-(R)-piperidin-3-ylmethanone], the IC50 in test [1] and in test [2] was less than 500 nM throughout.
Turning to `Nc1ncc2ccoc2c1OCc1ccc(NC(=O)c2cccn(-c3ccc(F)cc3)c2=O)cc1` [Example 461, 1-(4-Fluorophenyl)-2-oxo-1,2-dihydropyridine-3-carboxylic acid [4-(6-aminofuro[3,2-c]pyridin-7-yloxymethyl)phenyl]amide], the half-maximal inhibitory concentration (IC50) in test [1] is 500 to 5000 nM; in test [2], greater than 20000 nM.
As for `C[C@@H](Oc1c(N)ncc2c(-c3ccc(CN4CCC4)s3)coc12)c1c(Cl)ccc(F)c1Cl` [Example 220, 3-(5-Azetidin-1-ylmethylthiophen-2-yl)-7-[(R)-1-(2,6-dichloro-3-fluorophenyl)ethoxy]furo[3,2-c]pyridin-6-ylamine], the IC50 in test [1] and in test [2] was less than 500 nM throughout.
As to `C[C@H](Oc1c(N)ncc2c(-c3cnn(C4CCNCC4)c3)coc12)c1nnc2ccc(-c3cnn(C)c3)nn12` [Example 479, 7-{(1S)-1-[6-(1-methyl-1H-pyrazol-4-yl) [1,2,4]triazolo[4,3-b]pyridazin-3-yl]ethoxy}-3-[1-(piperidin-4-yl)-1H-pyrazol-4-yl]furo[3,2-c]pyridin-6-amine], the IC50 is 500 to 5000 nM in test [1] and 5000 to 20000 nM in test [2].
As to `C[C@@H](Oc1c(N)ncc2c(-c3ccc4cc[nH]c4c3)coc12)c1c(Cl)ccc(F)c1Cl` [Example 129, 7-[(R)-(2,6-Dichloro-3-fluorophenyl)ethoxy]-3-(1H-indol-6-yl)furo[3,2-c]pyridin-6-ylamine], the IC50 in test [1] and in test [2] was 500 to 5000 nM in each case.
Take `CC(O)C(=O)N1CC=C(c2coc3c(O[C@H](C)c4c(Cl)ccc(F)c4Cl)c(N)ncc23)CC1` (stereo partly drawn) [Example 229, 1-(4-{6-Amino-7-[(R)-1-(2,6-dichloro-3-fluorophenyl)ethoxy]-furo[3,2-c]pyridin-3-yl}-3,6-dihydro-2H-pyridin-1-yl)-2-hydroxypropan-1-one]: the concentration for half-maximal inhibition (IC50) in test [1] and in test [2] was less than 500 nM throughout.
Take `C[C@@H](Oc1c(N)ncc2c(-c3ccc(C(=O)NCCN(C)C)cc3)coc12)c1c(Cl)ccc(F)c1Cl` [Example 71, 4-{6-Amino-7-[(R)-1-(2,6-dichloro-3-fluorophenyl)ethoxy]-furo[3,2-c]pyridin-3-yl}-N-(2-dimethylaminoethyl)benzamide]: the IC50 in test [1] and in test [2] was less than 500 nM throughout.
Turning to `CCN1CC=C(c2coc3c(O[C@H](C)c4c(Cl)ccc(F)c4Cl)c(N)ncc23)CC1` [Example 40, 7-[(R)-1-(2,6-Dichloro-3-fluorophenyl)-ethoxy]-3-(1-ethyl-1,2,3,6-tetrahydropyridin-4-yl)-furo[3,2-c]pyridin-6-ylamine], the IC50 in test [1] and in test [2] was less than 500 nM each time.
Take `CNC(=O)c1csc(-c2coc3c(O[C@H](C)c4c(Cl)ccc(F)c4Cl)c(N)ncc23)c1` [Example 327, 5-{6-Amino-7-[(R)-1-(2,6-dichloro-3-fluorophenyl)ethoxy]furo[3,2-c]pyridin-3-yl}thiophene-3-carboxylic acid methylamide]: the results for the IC50 in test [1] and in test [2] were 500 to 5000 nM and 5000 to 20000 nM, respectively.
Consider `C[C@@H](Oc1c(N)ncc2c(-c3cncc(C(=O)N4CCOCC4)c3)coc12)c1c(Cl)ccc(F)c1Cl` [Example 282, (5-{6-Amino-7-[(R)-1-(2,6-dichloro-3-fluorophenyl)ethoxy]furo[3,2-c]pyridin-3-yl}pyridin-3-yl)morpholin-4-ylmethanone], for which the IC50 in test [1] lay in the range of 500 to 5000 nM; in test [2], 5000 to 20000 nM.
As for `C[C@H](O)C(=O)N1CC=C(c2coc3c(O[C@H](C)c4c(Cl)ccc(F)c4Cl)c(N)ncc23)CC1` [Example 227, (S)-1-(4-{6-Amino-7-[(R)-1-(2,6-dichloro-3-fluorophenyl)ethoxy]-furo[3,2-c]pyridin-3-yl}-3,6-dihydro-2H-pyridin-1-yl)-2-hydroxypropan-1-one], the 50% inhibitory concentration (IC50) in test [1] was less than 500 nM; in test [2] it was 500 to 5000 nM.
For `CC(Oc1c(N)ncc2c(-c3cnn(C4CCNCC4)c3)coc12)c1c(Cl)cccc1Br` (stereo not drawn) [Example 361, 7-[1-(2-Bromo-6-chlorophenyl)ethoxy]-3-(1-piperidin-4-yl-1H-pyrazol-4-yl)furo[3,2-c]pyridin-6-ylamine], the concentration for half-maximal inhibition (IC50) in test [1] and in test [2] was less than 500 nM throughout.
As to `C[C@@H](Oc1c(N)ncc2c(C3=CCN(CC(N)=O)CC3)coc12)c1c(Cl)ccc(F)c1Cl` [Example 202, 2-(4-{6-Amino-7-[(R)-1-(2,6-dichloro-3-fluorophenyl)ethoxy]-furo[3,2-c]pyridin-3-yl}-3,6-dihydro-2H-pyridin-1-yl)-acetamide], the IC50 in test [1] was less than 500 nM; in test [2] it was 500 to 5000 nM.
Consider `CC(Oc1c(N)ncc2c(-c3cnn(C4CCNCC4)c3)coc12)c1cc(F)cc(Br)c1` (stereo not drawn) [Example 434, 7-[1-(3-Bromo-5-fluorophenyl)ethoxy]-3-(1-piperidin-4-yl-1H-pyrazol-4-yl)furo[3,2-c]pyridin-6-ylamine], for which the IC50 in test [1] and in test [2] was less than 500 nM in each case.
Consider `C[C@@H](Oc1c(N)ncc2c(C3=CCN(C(=O)C4CCN(C)CC4)CC3)coc12)c1c(Cl)ccc(F)c1Cl` [Example 17, (4-{6-Amino-7-[(R)-1-(2,6-dichloro-3-fluorophenyl)-ethoxy]-furo[3,2-c]pyridin-3-yl}-3,6-dihydro-2H-pyridin-1-yl)-(1-methylpiperidin-4-yl)-methanone], for which the IC50 in test [1] and in test [2] was less than 500 nM throughout.
`CC(Cc1c(F)cccc1Cl)Oc1c(N)ncc2c(-c3cnn(C4CCNCC4)c3)coc12` (stereo not drawn) [Example 419, 7-[2-(2-Chloro-6-fluorophenyl)-1-methylethoxy]-3-(1-piperidin-4-yl-1H-pyrazol-4-yl)furo[3,2-c]pyridin-6-ylamine]: the IC50 in test [1] and in test [2] was 500 to 5000 nM throughout.
For the compound `C[C@@H](Oc1c(N)ncc2c(-c3cccc(NS(=O)(=O)CCC(F)(F)F)c3)coc12)c1c(Cl)ccc(F)c1Cl` [Example 248, 3,3,3-Trifluoropropane-1-sulfonic acid (3-{6-amino-7-[(R)-1-(2,6-dichloro-3-fluorophenyl)ethoxy]-furo[3,2-c]pyridin-3-yl}phenyl)amide], the results for the IC50 in test [1] and in test [2] were 500 to 5000 nM and 5000 to 20000 nM, respectively.
For `CC(/C=C/c1c(Cl)ccc(F)c1Cl)Oc1c(N)ncc2c(-c3cnn(C4CCNCC4)c3)coc12` (stereo not drawn) [Example 373, 7-[(E)-3-(2,6-Dichloro-3-fluorophenyl)-1-methylallyloxy]-3-(1-piperidin-4-yl-1H-pyrazol-4-yl)furo[3,2-c]pyridin-6-ylamine], in that order: less than 500 nM and 500 to 5000 nM.
On to `C[C@H](Oc1c(N)ncc2c(-c3cnn(C4CCNCC4)c3)coc12)c1ccncc1` [Example 396, 3-(1-Piperidin-4-yl-1H-pyrazol-4-yl)-7-((S)-1-pyridin-4-yl-ethoxy)furo[3,2-c]pyridin-6-ylamine], for which the 50% inhibitory concentration (IC50) in test [1] was less than 500 nM; in test [2], 500 to 5000 nM.
As for `C[C@@H](Oc1c(N)ncc2c(C3=CCN(C4CNC4)CC3)coc12)c1c(Cl)ccc(F)c1Cl` [Example 322, 3-(1-Azetidin-3-yl-1,2,3,6-tetrahydropyridin-4-yl)-7-[(R)-1-(2,6-dichloro-3-fluorophenyl)ethoxy]furo[3,2-c]pyridin-6-ylamine], the IC50 in test [1] and in test [2] was less than 500 nM each time.
For the compound `Cc1cccc(C(C)Oc2c(N)ncc3c(-c4cnn(C5CCNCC5)c4)coc23)c1` (stereo not drawn) [Example 343, 3-(1-Piperidin-4-yl-1H-pyrazol-4-yl)-7-(1-m-tolylethoxy)furo[3,2-c]pyridin-6-ylamine], the IC50 in test [1] and in test [2] was 500 to 5000 nM in each case.
Turning to `C[C@@H](Oc1c(N)ncc2c(C3=CCN(CC4CCCCC4)CC3)coc12)c1c(Cl)ccc(F)c1Cl` [Example 38, 3-(1-Cyclohexylmethyl-1,2,3,6-tetrahydropyridin-4-yl)-7-[(R)-1-(2,6-dichloro-3-fluorophenyl)-ethoxy]-furo[3,2-c]pyridin-6-ylamine], the 50% inhibitory concentration (IC50) in test [1] and in test [2] was less than 500 nM throughout.
As for `C[C@@H](Oc1c(N)ncc2c(-c3nccs3)coc12)c1c(Cl)ccc(F)c1Cl` [Example 135, 7-[(R)-1-(2,6-Dichloro-3-fluorophenyl)-ethoxy]-3-thiazol-2-ylfuro[3,2-c]pyridin-6-ylamine], the half-inhibitory concentration (IC50) in test [1] and in test [2] was 500 to 5000 nM throughout.
On to `Cn1c(Cc2ccccc2)ncc(-c2ccc(COc3c(N)ncc4c(-c5cnn(C6CCNCC6)c5)coc34)cc2)c1=O` [Example 462, 5-{4-[6-Amino-3-(1-piperidin-4-yl-1H-pyrazol-4-yl)-furo[3,2-c]pyridin-7-yloxymethyl]-phenyl}-2-benzyl-3-methyl-3H-pyrimidin-4-one], for which the 50% inhibitory concentration (IC50) in test [1] and in test [2] was less than 500 nM each time.

As usually defined, the IC50 is the concentration needed to halve the response being measured.
